Results published in patent US7649008B2, “Crystal of benzimidazole derivative and process for producing the same” (priority 2003, dated 2010).
Entries after “also recorded” stand apart in the source; their conditions may differ.

What was measured:
[1] = Absorptivity of the crystal forms; details: qualitative
[2] = Storage stability of the crystal forms; type: physicochemical; details: qualitative
[3] = Relative stability of the crystal forms; type: physicochemical; details: four kinds of crystals excluding the solvate
[4] = Solubility of the crystal forms in the solvent; type: physicochemical; details: qualitative, solvent not given

Row | Compound | absorptivity [1] | storage stability [2] | stability (rank order of crystal forms) [3] | solubility in the solvent [4] | solubility in the solvent ([4]; hydrate)
1 | Cc1cccc2scc(Cn3c(SCCCC(=O)O)nc4ccccc43)c12 [crystal A, 4-(1-((4-methylbenzothiophen-3-yl)methyl)benzimidazol-2-ylthio)butanoic acid] | comparatively excellent | excellent | becomes lower in the order of crystal D, crystal B, crystal A and crystal E | becomes higher in this order; also recorded: excellent | 
2 | Cc1cccc2scc(Cn3c(SCCCC(=O)O)nc4ccccc43)c12 [crystal B, 4-(1-((4-methylbenzothiophen-3-yl)methyl)benzimidazol-2-ylthio)butanoic acid] |  | excellent | becomes lower in the order of crystal D, crystal B, crystal A and crystal E | becomes higher in this order | 
3 | Cc1cccc2scc(Cn3c(SCCCC(=O)O)nc4ccccc43)c12 [crystal D, 4-(1-((4-methylbenzothiophen-3-yl)methyl)benzimidazol-2-ylthio)butanoic acid] |  | excellent | becomes lower in the order of crystal D, crystal B, crystal A and crystal E | becomes higher in this order; also recorded: drastically poor | 
4 | Cc1cccc2scc(Cn3c(SCCCC(=O)O)nc4ccccc43)c12 [crystal E, 4-(1-((4-methylbenzothiophen-3-yl)methyl)benzimidazol-2-ylthio)butanoic acid] | comparatively excellent | excellent | becomes lower in the order of crystal D, crystal B, crystal A and crystal E | becomes higher in this order; also recorded: excellent | 
5 | Cc1cccc2scc(Cn3c(SCCCC(=O)O)nc4ccccc43)c12 [hydrate crystal, 4-(1-((4-methylbenzothiophen-3-yl)methyl)benzimidazol-2-ylthio)butanoic acid hydrate] | comparatively excellent | excellent |  |  | excellent
